In patent publication US20050209157A1, “Short bioactive peptides and methods for their use” (priority 2001, published 2005):
Values after ≈ are worked out from the molar mass of the structure shown.

Assays:
[1] = test system: Escherichia coli ATCC 25922; assay: Antimicrobial assay I, modified protocol (tryptic soy broth), MBC; settings: minimum bactericidal concentration, Table 4
[2] = test system: Stapholococcus aureus ATCC 25923; assay: as above; settings: minimum bactericidal concentration, Table 4
[3] = test system: Candida albicans ATCC 10231; assay: Antimicrobial assay I, modified protocol (tryptic soy broth), MFC; settings: minimum fungicidal concentration, Table 4
[4] = test system: Pseudomonas aeruginosa ATCC 27853; assay: Antimicrobial assay I, modified protocol (tryptic soy broth), MBC; settings: minimum bactericidal concentration, Table 4

| Compound | MBC E. coli A.25922 [1] [µg/mL] | MBC S. aur A.25923 [2] [µg/mL] | MFC Candida A.10231 [3] [µg/mL] | MBC P. aerug A.27853 [4] [µg/mL] |
| --- | --- | --- | --- | --- |
| CC(C)C[C@H](NC(=O)[C@H](C)NC(=O)[C@H](CCCCN)NC(=O)[C@H](CCCCN)NC(=O)[C@H](C)NC(=O)[C@H](CC(C)C)NC(=O)[C@H](CCCCN)NC(=O)[C@H](C)NC(=O)[C@H](CC(C)C)NC(=O)[C@H](CC(C)C)NC(=O)[C@H](CCCCN)NC(=O)[C@H](C)NC(=O)[C@@H](N)Cc1ccccc1)C(N)=O [compound 54] | 15 (≈ 10.6 µM) | 15 (≈ 10.6 µM) | 30 (≈ 21.2 µM) | 40 (≈ 28.3 µM) |
| CC(C)C[C@H](NC(=O)[C@H](CC(C)C)NC(=O)[C@H](CCCCN)NC(=O)[C@H](CCCCN)NC(=O)[C@H](C)NC(=O)[C@H](C)NC(=O)[C@H](CC(C)C)NC(=O)[C@H](CCCCN)NC(=O)[C@H](CC(C)C)NC(=O)[C@H](CC(C)C)NC(=O)[C@H](CCCCN)NC(=O)[C@H](C)NC(=O)[C@@H](N)Cc1ccccc1)C(N)=O [compound 56] | 50 (≈ 34.3 µM) | 55 (≈ 37.8 µM) | 30 (≈ 20.6 µM) | 10 (≈ 6.87 µM) |
| CC(C)C[C@H](NC(=O)[C@H](CC(C)C)NC(=O)[C@H](CCCCN)NC(=O)[C@H](CCCCN)NC(=O)[C@H](C)NC(=O)[C@H](CC(C)C)NC(=O)[C@H](CC(C)C)NC(=O)[C@H](CCCCN)NC(=O)[C@H](C)NC(=O)[C@@H](N)Cc1ccccc1)C(N)=O [compound 57] | >50 | >50 | >50 | >50 |
| CC(C)C[C@H](NC(=O)[C@H](CC(C)C)NC(=O)[C@H](C)NC(=O)[C@H](CCCCN)NC(=O)[C@H](C)NC(=O)[C@H](CC(C)C)NC(=O)[C@H](CCCCN)NC(=O)[C@H](CCCCN)NC(=O)[C@H](C)NC(=O)[C@@H](N)Cc1ccccc1)C(N)=O [compound 58] | >50 | >50 | >50 | >50 |
| CC(C)C[C@H](NC(=O)[C@H](CC(C)C)NC(=O)[C@H](CCCCN)NC(=O)[C@H](CCCCN)NC(=O)[C@H](C)NC(=O)[C@H](CC(C)C)NC(=O)[C@H](CCCCN)NC(=O)[C@H](CCCCN)NC(=O)[C@H](C)NC(=O)[C@@H](N)Cc1ccccc1)C(N)=O [compound 59] | >50 | >50 | >50 | >50 |
| CC(C)C[C@H](NC(=O)[C@H](CC(C)C)NC(=O)[C@H](CCCCN)NC(=O)[C@H](CCCCN)NC(=O)[C@H](C)NC(=O)[C@H](CC(C)C)NC(=O)[C@H](CCCCN)NC(=O)[C@H](C)NC(=O)[C@@H](N)Cc1ccccc1)C(N)=O [compound 60] | >50 | >50 | >50 | >50 |
| CC(C)C[C@H](NC(=O)[C@H](CCCCN)NC(=O)[C@H](C)NC(=O)[C@H](CCCCN)NC(=O)[C@H](C)NC(=O)[C@H](CC(C)C)NC(=O)[C@H](CCCCN)NC(=O)[C@H](C)NC(=O)[C@H](CC(C)C)NC(=O)[C@H](CC(C)C)NC(=O)[C@H](CCCCN)NC(=O)[C@H](C)NC(=O)[C@@H](N)Cc1ccccc1)C(N)=O [compound 65] | >55 | >55 | >50 | >50 |
| CC(C)C[C@H](NC(=O)[C@H](CCCCN)NC(=O)[C@H](CC(C)C)NC(=O)[C@H](CCCCN)NC(=O)[C@H](C)NC(=O)[C@H](CC(C)C)NC(=O)[C@H](CCCCN)NC(=O)[C@H](C)NC(=O)[C@H](CC(C)C)NC(=O)[C@H](CC(C)C)NC(=O)[C@H](CCCCN)NC(=O)[C@H](C)NC(=O)[C@@H](N)Cc1ccccc1)C(N)=O [compound 66] | 40 (≈ 27.5 µM) | 30 (≈ 20.6 µM) | 40 (≈ 27.5 µM) | 50 (≈ 34.3 µM) |
